Key:
Assay type in all cases: functional, cell-based
BaF3 [1] = experiment: Antiproliferative activity against mouse BAF3 cells expressing wild type Bcr-Abl
BaF3 [2] = experiment: Antiproliferative activity against mouse BAF3 cells expressing Bcr-Abl T315I mutant
BaF3 [3] = experiment: Antiproliferative activity against mouse BAF3 cells

| Structure (SMILES) | EC50 (BaF3 [1]) [nM] | EC50 (BaF3 [2]) [nM] | EC50 (BaF3 [3]) [nM] |
| --- | --- | --- | --- |
| Cc1cn(-c2cc(NC(=O)c3cccc(C#Cc4cnc5[nH]ccc5c4)c3)cc(C(F)(F)F)c2)cn1 | 15 | 300 | 2830 |
| CCN1CCN(Cc2ccc(NC(=O)c3ccc(C)c(C#Cc4cnc5[nH]c(C)cc5c4)c3)cc2C(F)(F)F)CC1 | 26 | 560 | 1000 |
| Cc1cn(-c2cc(NC(=O)c3ccc(C)c(C#Cc4cnc5[nH]ccc5c4)c3)cc(C(F)(F)F)c2)cn1 | 37 | 470 | > 10000 |
| CCN1CCN(Cc2ccc(NC(=O)c3ccc(C)c(C#Cc4coc5ccccc45)c3)cc2C(F)(F)F)CC1 | 240 | 8370 | 6760 |
| CCN1CCN(Cc2ccc(NC(=O)c3ccc(C)c(C#Cc4cnc5nccnc5c4)c3)cc2C(F)(F)F)CC1 | 37 | 5520 | 3320 |
| CCN1CCN(Cc2ccc(C(=O)Nc3ccc(C)c(C#Cc4cnc5[nH]ccc5c4)c3)cc2C(F)(F)F)CC1 | 70 | 2630 | 7860 |
| CCN1CCN(Cc2ccc(NC(=O)c3ccc(C)c(C#Cc4ccc(C(=O)NC)nc4)c3)cc2C(F)(F)F)CC1 | 41 | 2580 | 3980 |
| CCN1CCN(Cc2ccc(NC(=O)c3cccc(C#Cc4cnc5[nH]ccc5c4)c3)cc2C(F)(F)F)CC1 | 11 | 220 | > 10000 |
| CCN1CCN(Cc2ccc(NC(=O)c3ccc(C)c(C#Cc4cnccn4)c3)cc2C(F)(F)F)CC1 | 6 | 3030 | 2490 |

These reach a lower EC50 (BaF3 [1]). Values come first.

| EC50 (BaF3 [1]) [nM] | EC50 (BaF3 [2]) [nM] | EC50 (BaF3 [3]) [nM] | Structure (SMILES) |
| --- | --- | --- | --- |
| < 1 | 10 | 2050 | CCN1CCN(Cc2ccc(NC(=O)c3ccc(C)c(C#Cc4ccc(NC(C)=O)nc4)c3)cc2C(F)(F)F)CC1 |
| < 1 | 165 | 860 | CCN1CCN(Cc2ccc(NC(=O)c3ccc(C)c(C#Cc4cnc(N)cn4)c3)cc2C(F)(F)F)CC1 |
| < 1 | 13 | 1800 | CCN1CCN(Cc2ccc(NC(=O)c3ccc(C)c(C#Cc4ccc(NC(=O)C5CC5)nc4)c3)cc2C(F)(F)F)CC1 |
| < 1 | 14 | 60 | CCN1CCN(Cc2ccc(NC(=O)c3ccc(C)c(C#Cc4cnc5[nH]cnc5c4)c3)cc2C(F)(F)F)CC1 |
| < 1 | 990 | 2190 | CCN1CCN(Cc2ccc(NC(=O)c3ccc(C)c(C#Cc4cncnc4)c3)cc2C(F)(F)F)CC1 |

From ChEMBL document CHEMBL1177794, “Broad spectrum alkynyl inhibitors of T315I Bcr-Abl” (Bioorg Med Chem Lett, 2010)
